Measured values as given in PMC11213733, “Computational approaches identify a transcriptomic fingerprint of drug-induced structural cardiotoxicity” (Cell Biology and Toxicology, 2024).
Where two headings read alike, the source gives them in different places.

Assays:
[1] = test system: cardiac microtissues; test: Transcriptomic profiling (mRNA-seq) and DESeq2 differential gene expression analysis in cardiac microtissues; details: absolute log2(Fold-Change) > 1, FDR p ≤ 0.05
[2] = test system: cardiac microtissues; test: Targeted qRT-PCR of ATAD3C, CDH13, IL6, PTX3, SLC7A5, UCHL1 in cardiac microtissues; type: cell-based, human; details: Sorafenib 3.74 µM, Sunitinib 3.53 µM, Dasatinib 10.8 µM; for activity at 10.8 µM: Homo sapiens, read-out: % of control
Experimental: The experiment was performed with three technical replicates across 1-2 independent replicates.

[3] = ref FDA label, cited from earlier work
[4] = test system: cardiac microtissues; test: Ingenuity Pathway Analysis over-representation of differentially expressed genes (activation Z-score); type: cell-based, human; details: 48hr high; Group 2

## Cc1nc(Nc2ncc(C(=O)Nc3c(C)cccc3Cl)s2)cc(N2CCN(CCO)CC2)n1 [Dasatinib]
[1]; 6 hr, high concentration
  number of significant differentially expressed genes, 6hr high: 108
[1]; 6 hr, low concentration
  number of significant differentially expressed genes, 6hr low: 48
[1]; 48 hr, high concentration
  number of significant differentially expressed genes, 48hr high: 820
[1]; 48 hr, low concentration
  number of significant differentially expressed genes, 48hr low: 637
[1]; 72 hr, high concentration
  number of significant differentially expressed genes, 72hr high: 814
[1]; 72 hr, low concentration
  number of significant differentially expressed genes, 72hr low: 616
[2]; gene ATAD3C, Run 1
  activity at 10.8 µM: 75.7%
  2^-ΔΔCt of Individual reps, Treated 1: 0.8222
  2^-ΔΔCt of Individual reps, Treated 2: 0.6233
  2^-ΔΔCt of Individual reps, Treated 3: 0.828
  Average 2^-ΔΔCt, Treated: 0.7578
[2]; gene CDH13, Run 1
  activity at 10.8 µM: 46.8%
  2^-ΔΔCt of Individual reps, Treated 1: 0.4709
  2^-ΔΔCt of Individual reps, Treated 2: 0.4361
  2^-ΔΔCt of Individual reps, Treated 3: 0.5098
  Average 2^-ΔΔCt, Treated: 0.4723
[2]; gene CDH13, Run 2
  activity at 10.8 µM: 19.7%
  2^-ΔΔCt of Individual reps, Treated 1: 0.2109
  2^-ΔΔCt of Individual reps, Treated 2: 0.2308
  2^-ΔΔCt of Individual reps, Treated 3: 0.1575
  Average 2^-ΔΔCt, Treated: 0.1997
[2]; gene IL6, Run 1
  activity at 10.8 µM: 10.1%
  2^-ΔΔCt of Individual reps, Treated 1: 0.1388
  2^-ΔΔCt of Individual reps, Treated 2: 0.1078
  2^-ΔΔCt of Individual reps, Treated 3: 0.05876
  Average 2^-ΔΔCt, Treated: 0.1018
[2]; gene PTX3, Run 1
  activity at 10.8 µM: 18.7%
  2^-ΔΔCt of Individual reps, Treated 1: 0.2236
  2^-ΔΔCt of Individual reps, Treated 2: 0.2024
  2^-ΔΔCt of Individual reps, Treated 3: 0.143
  Average 2^-ΔΔCt, Treated: 0.1897
[2]; gene PTX3, Run 2
  activity at 10.8 µM: 4.94%
  2^-ΔΔCt of Individual reps, Treated 1: 0.06731
  2^-ΔΔCt of Individual reps, Treated 2: 0.04708
  2^-ΔΔCt of Individual reps, Treated 3: 0.03383
  Average 2^-ΔΔCt, Treated: 0.04941
[2]; gene SLC7A5, Run 1
  activity at 10.8 µM: 52.1%
  2^-ΔΔCt of Individual reps, Treated 1: 0.5311
  2^-ΔΔCt of Individual reps, Treated 2: 0.5414
  2^-ΔΔCt of Individual reps, Treated 3: 0.5079
  Average 2^-ΔΔCt, Treated: 0.5268
[2]; gene SLC7A5, Run 2
  activity at 10.8 µM: 26%
  2^-ΔΔCt of Individual reps, Treated 1: 0.3467
  2^-ΔΔCt of Individual reps, Treated 2: 0.2554
  2^-ΔΔCt of Individual reps, Treated 3: 0.2489
  Average 2^-ΔΔCt, Treated: 0.2837
[2]; gene UCHL1, Run 1
  activity at 10.8 µM: 42.1%
  2^-ΔΔCt of Individual reps, Treated 1: 0.4041
  2^-ΔΔCt of Individual reps, Treated 2: 0.4271
  2^-ΔΔCt of Individual reps, Treated 3: 0.4398
  Average 2^-ΔΔCt, Treated: 0.4237
[2]; gene UCHL1, Run 2
  activity at 10.8 µM: 21.3%
  2^-ΔΔCt of Individual reps, Treated 1: 0.202
  2^-ΔΔCt of Individual reps, Treated 2: 0.2889
  2^-ΔΔCt of Individual reps, Treated 3: 0.1891
  Average 2^-ΔΔCt, Treated: 0.2267
[3]; FDA label references heart failure or a decrease in left ventricular ejection fraction
  Structural cardiotoxin?: Y
[3]; compound annotation
  Functional cardiotoxin?: Y
[4]
  activation Z-score: Actin Cytoskeleton Signaling: -2.887
  activation Z-score: Actin Nucleation by ARP-WASP Complex: -2.449
  activation Z-score: Acute Phase Response Signaling: -2.828
  activation Z-score: Adrenomedullin signaling pathway: -0.535
  activation Z-score: Apelin Cardiac Fibroblast Signaling Pathway: 2.449
  activation Z-score: Apelin Liver Signaling Pathway: -2.449
  activation Z-score: Aryl Hydrocarbon Receptor Signaling: -2.333
  activation Z-score: Breast Cancer Regulation by Stathmin1: -3.363
  activation Z-score: CLEAR Signaling Pathway: 2.5
  activation Z-score: Cardiac Hypertrophy Signaling (Enhanced): -3.889
  activation Z-score: Colorectal Cancer Metastasis Signaling: -3.5
  activation Z-score: Cyclins and Cell Cycle Regulation: 1
  activation Z-score: ERK5 Signaling: -2.646
  activation Z-score: Endothelin-1 Signaling: -1.604
  activation Z-score: G-Protein Coupled Receptor Signaling: -1.571
  activation Z-score: GP6 Signaling Pathway: -3.742
  activation Z-score: Glioblastoma Multiforme Signaling: -2.111
  activation Z-score: HGF Signaling: -1.89
  activation Z-score: HIF1Î± Signaling: -2.673
  activation Z-score: HMGB1 Signaling: -3.3
  activation Z-score: Hepatic Fibrosis Signaling Pathway: -6.008
  activation Z-score: IL-6 Signaling: -3.3
  activation Z-score: IL-8 Signaling: -2.84
  activation Z-score: IL-13 Signaling Pathway: -1.897
  activation Z-score: IL-15 Production: -1.897
  activation Z-score: ILK Signaling: -3.207
  activation Z-score: Immunogenic Cell Death Signaling Pathway: -2.828
  activation Z-score: Integrin Signaling: -3.357
  activation Z-score: Intrinsic Prothrombin Activation Pathway: -2.236
  activation Z-score: LXR/RXR Activation: 3.3
  activation Z-score: Leukocyte Extravasation Signaling: -1.698
  activation Z-score: MIF Regulation of Innate Immunity: -1.633
  activation Z-score: MYC Mediated Apoptosis Signaling: -2.449
  activation Z-score: Macrophage Alternative Activation Signaling Pathway: -0.728
  activation Z-score: Oncostatin M Signaling: -1.342
  activation Z-score: Osteoarthritis Pathway: -2.985
  activation Z-score: Oxytocin Signaling Pathway: -2.4
  activation Z-score: PAK Signaling: -2.449
  activation Z-score: PPAR Signaling: 3.742
  activation Z-score: Production of Nitric Oxide and Reactive Oxygen Species in Macrophages: -2.646
  activation Z-score: Prostanoid Biosynthesis: -1
  activation Z-score: Pulmonary Fibrosis Idiopathic Signaling Pathway: -5.947
  activation Z-score: Pulmonary Healing Signaling Pathway: -2.668
  activation Z-score: RAC Signaling: -2.449
  activation Z-score: RHOGDI Signaling: 2.309
  activation Z-score: Regulation Of The Epithelial Mesenchymal Transition By Growth Factors Pathway: -3.962
  activation Z-score: Regulation of Cellular Mechanics by Calpain Protease: -2
  activation Z-score: Regulation of eIF4 and p70S6K Signaling: -2
  activation Z-score: Renin-Angiotensin Signaling: -2
  activation Z-score: Ribonucleotide Reductase Signaling Pathway: -2.496
  activation Z-score: Role of IL-17F in Allergic Inflammatory Airway Diseases: -2
  activation Z-score: Role of JAK family kinases in IL-6-type Cytokine Signaling: -2.673
  activation Z-score: Role of NFAT in Cardiac Hypertrophy: -2.496
  activation Z-score: STAT3 Pathway: -2.496
  activation Z-score: Senescence Pathway: -2
  activation Z-score: Signaling by Rho Family GTPases: -3.357
  activation Z-score: Superpathway of Cholesterol Biosynthesis: 2
  activation Z-score: TREM1 Signaling: -2.714
  activation Z-score: Type II Diabetes Mellitus Signaling: -2
  activation Z-score: White Adipose Tissue Browning Pathway: -2.111
  activation Z-score: Wound Healing Signaling Pathway: -5
